{"source": "ChEMBL document CHEMBL1201862", "about": "“PubChem BioAssay data set” (2004)", "assay_in_all_cases": "growth of human tumour cells (NCI), 48 h", "key": {"786-0": {"test_system": "786-0"}, "A498": {"test_system": "A498"}, "A549": {"test_system": "A549"}, "ACHN": {"test_system": "ACHN"}, "BT-549": {"test_system": "BT-549"}, "CAKI-1": {"test_system": "CAKI-1"}, "CCRF-CEM": {"test_system": "CCRF-CEM"}, "COLO 205": {"test_system": "COLO 205"}, "DU-145": {"test_system": "DU-145"}, "EKVX": {"test_system": "EKVX"}, "HCC 2998": {"test_system": "HCC 2998"}, "HCT-116": {"test_system": "HCT-116"}, "HCT-15": {"test_system": "HCT-15"}, "HL-60": {"test_system": "HL-60"}, "HOP-62": {"test_system": "HOP-62"}, "HOP-92": {"test_system": "HOP-92"}, "HT-29": {"test_system": "HT-29"}, "Hs-578T": {"test_system": "Hs-578T"}, "IGROV-1": {"test_system": "IGROV-1"}, "K562": {"test_system": "K562"}, "KM12": {"test_system": "KM12"}, "LOX IMVI": {"test_system": "LOX IMVI"}, "M14": {"test_system": "M14"}, "MCF7": {"test_system": "MCF7"}, "MDA-MB-231": {"test_system": "MDA-MB-231"}, "MDA-MB-435": {"test_system": "MDA-MB-435"}, "MDA-N": {"test_system": "MDA-N"}, "MOLT-4": {"test_system": "MOLT-4"}, "Malme-3M": {"test_system": "Malme-3M"}, "NCI-H226": {"test_system": "NCI-H226"}, "NCI-H23": {"test_system": "NCI-H23"}, "NCI-H460": {"test_system": "NCI-H460"}, "NCI-H522": {"test_system": "NCI-H522"}, "NCI/ADR-RES": {"test_system": "NCI/ADR-RES"}, "OVCAR-3": {"test_system": "OVCAR-3"}, "OVCAR-4": {"test_system": "OVCAR-4"}, "OVCAR-5": {"test_system": "OVCAR-5"}, "OVCAR-8": {"test_system": "OVCAR-8"}, "PC-3": {"test_system": "PC-3"}, "RPMI-8226": {"test_system": "RPMI-8226"}, "RXF 393": {"test_system": "RXF 393"}, "SF-268": {"test_system": "SF-268"}, "SF-295": {"test_system": "SF-295"}, "SF-539": {"test_system": "SF-539"}, "SK-MEL-28": {"test_system": "SK-MEL-28"}, "SK-MEL-2": {"test_system": "SK-MEL-2"}, "SK-MEL-5": {"test_system": "SK-MEL-5"}, "SK-OV-3": {"test_system": "SK-OV-3"}, "SN12C": {"test_system": "SN12C"}, "SNB-19": {"test_system": "SNB-19"}, "SNB-75": {"test_system": "SNB-75"}, "SR": {"test_system": "SR"}, "SW-620": {"test_system": "SW-620"}, "T47D": {"test_system": "T47D"}, "TK-10": {"test_system": "TK-10"}, "U-251": {"test_system": "U-251"}, "UACC-257": {"test_system": "UACC-257"}, "UACC-62": {"test_system": "UACC-62"}, "UO-31": {"test_system": "UO-31"}}, "note": "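Dose response: 5 concentrations. Exposure: 48 h. Format: 96-well plates. Endpoint: linear interpolation; highest concentration if not reached. GI50 = concentration required for 50% inhibition of growth.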 Activity calls are given as the source filed them. Cut-off read from the data, not from the text of the source: active = GI50 up to about 1.1 µM and inactive = higher.", "data": [{"smiles": "COC(=O)C1=C(OC(=O)/C=C/c2ccccc2)C(C(=O)OC)[C@@]2(O)[C@@H](C(=O)OC)[C@H](C)C[C@@H]1[C@@H]2C(=O)OC", "note": "(some centres undefined)", "values": [{"measurement": "GI50", "setting": "786-0", "value": "17.1 µM (inactive)"}, {"measurement": "GI50", "setting": "A498", "value": "13.3 µM (inactive)"}, {"measurement": "GI50", "setting": "A549", "value": "15.3 µM (inactive)"}, {"measurement": "GI50", "setting": "ACHN", "value": "22.8 µM (inactive)"}, {"measurement": "GI50", "setting": "BT-549", "value": "15.4 µM (inactive)"}, {"measurement": "GI50", "setting": "CAKI-1", "value": "15.7 µM (inactive)"}, {"measurement": "GI50", "setting": "CCRF-CEM", "value": "56.5 µM (inactive)"}, {"measurement": "GI50", "setting": "COLO 205", "value": "28.8 µM (inactive)"}, {"measurement": "GI50", "setting": "DU-145", "value": "18 µM (inactive)"}, {"measurement": "GI50", "setting": "EKVX", "value": "15.5 µM (inactive)"}, {"measurement": "GI50", "setting": "HCC 2998", "value": "19.4 µM (inactive)"}, {"measurement": "GI50", "setting": "HCT-116", "value": "24.1 µM (inactive)"}, {"measurement": "GI50", "setting": "HCT-15", "value": 11.7, "unit": "µM"}, {"measurement": "GI50", "setting": "HL-60", "value": "39.2 µM (inactive)"}, {"measurement": "GI50", "setting": "HOP-62", "value": "19 µM (inactive)"}, {"measurement": "GI50", "setting": "HOP-92", "value": "20.4 µM (inactive)"}, {"measurement": "GI50", "setting": "HT-29", "value": "24.7 µM (inactive)"}, {"measurement": "GI50", "setting": "Hs-578T", "value": "14.7 µM (inactive)"}, {"measurement": "GI50", "setting": "IGROV-1", "value": "25 µM (inactive)"}, {"measurement": "GI50", "setting": "K562", "value": "> 100 µM (inactive)"}, {"measurement": "GI50", "setting": "KM12", "value": "27.9 µM (inactive)"}, {"measurement": "GI50", "setting": "LOX IMVI", "value": "22.1 µM (inactive)"}, {"measurement": "GI50", "setting": "M14", "value": "25.5 µM (inactive)"}, {"measurement": "GI50", "setting": "MCF7", "value": "19.3 µM (inactive)"}, {"measurement": "GI50", "setting": "MDA-MB-231", "value": "14.8 µM (inactive)"}, {"measurement": "GI50", "setting": "MDA-MB-435", "value": "15.6 µM (inactive)"}, {"measurement": "GI50", "setting": "MDA-N", "value": "19.7 µM (inactive)"}, {"measurement": "GI50", "setting": "MOLT-4", "value": "> 100 µM (inactive)"}, {"measurement": "GI50", "setting": "Malme-3M", "value": "15.8 µM (inactive)"}, {"measurement": "GI50", "setting": "NCI-H226", "value": "41.1 µM (inactive)"}, {"measurement": "GI50", "setting": "NCI-H23", "value": "17.3 µM (inactive)"}, {"measurement": "GI50", "setting": "NCI-H460", "value": "17 µM (inactive)"}, {"measurement": "GI50", "setting": "NCI-H522", "value": "5.58 µM (inactive)"}, {"measurement": "GI50", "setting": "NCI/ADR-RES", "value": "16.7 µM (inactive)"}, {"measurement": "GI50", "setting": "OVCAR-3", "value": "19.9 µM (inactive)"}, {"measurement": "GI50", "setting": "OVCAR-4", "value": "18.2 µM (inactive)"}, {"measurement": "GI50", "setting": "OVCAR-5", "value": "11.7 µM (inactive)"}, {"measurement": "GI50", "setting": "OVCAR-8", "value": "14.2 µM (inactive)"}, {"measurement": "GI50", "setting": "PC-3", "value": "25.5 µM (inactive)"}, {"measurement": "GI50", "setting": "RPMI-8226", "value": "8.47 µM (inactive)"}, {"measurement": "GI50", "setting": "RXF 393", "value": "4.05 µM (inactive)"}, {"measurement": "GI50", "setting": "SF-268", "value": "24.2 µM (inactive)"}, {"measurement": "GI50", "setting": "SF-295", "value": "19.9 µM (inactive)"}, {"measurement": "GI50", "setting": "SF-539", "value": "19.8 µM (inactive)"}, {"measurement": "GI50", "setting": "SK-MEL-28", "value": "28.8 µM (inactive)"}, {"measurement": "GI50", "setting": "SK-MEL-2", "value": "24.9 µM (inactive)"}, {"measurement": "GI50", "setting": "SK-MEL-5", "value": "26.9 µM (inactive)"}, {"measurement": "GI50", "setting": "SK-OV-3", "value": "21.4 µM (inactive)"}, {"measurement": "GI50", "setting": "SN12C", "value": "13.9 µM (inactive)"}, {"measurement": "GI50", "setting": "SNB-19", "value": "26.2 µM (inactive)"}, {"measurement": "GI50", "setting": "SNB-75", "value": "19.4 µM (inactive)"}, {"measurement": "GI50", "setting": "SR", "value": "> 100 µM (inactive)"}, {"measurement": "GI50", "setting": "SW-620", "value": "28.3 µM (inactive)"}, {"measurement": "GI50", "setting": "T47D", "value": "24.5 µM (inactive)"}, {"measurement": "GI50", "setting": "TK-10", "value": "34.4 µM (inactive)"}, {"measurement": "GI50", "setting": "U-251", "value": "18.8 µM (inactive)"}, {"measurement": "GI50", "setting": "UACC-257", "value": "20.1 µM (inactive)"}, {"measurement": "GI50", "setting": "UACC-62", "value": "12.6 µM (inactive)"}, {"measurement": "GI50", "setting": "UO-31", "value": "17 µM (inactive)"}]}]}
